Read-outs that look alike come from different tables or passages of the source.
Legend:
[1] = system: human T lymphocytes (JAK1/3); design: method as in Coe et al., 25; details: ref Coe et al., 25; read-out: IC50 IL-2-induced IFNγ release by human T lymphocytes (JAK1/3); cited from earlier work
[2] = system: human primary airway epithelial cells; assay: IL-6 release from IFNγ + TNFα-stimulated human primary airway epithelial cells; format: cell-based
Procedure: In order to determine whether any of the inhibitory effects of the JAK inhibitors could be attributed to cell death, MTT assays were performed at the end of every experiment. […] In order to address this issue, the levels of IL-6 released from cells stimulated with IFNγ + TNFα were measured.

[3] = system: human T lymphocytes (JAK1/2); design: method as in Coe et al., 25; details: ref Coe et al., 25; read-out: IC50 IL-12-induced IFNγ release by human T lymphocytes (JAK1/2); cited from earlier work
STAT-1 [4] = assay: STAT-1 phosphorylation in human primary airway epithelial cells (western blot); format: cell-based; details: 1μM inhibitor 1h, IFNγ and IFNγ + TNFα 10 min
Procedure: (§1) Enhanced chemiluminescence (ECL) reagent and Hybond-ECL nitrocellulose were obtained from GE Healthcare (Little Chalfont, UK). Bis-Tris SDS-PAGE (4–12%) gels and buffers were purchased from Invitrogen Ltd (Paisley, Scotland, UK). Antibodies against phosphorylated and total STAT-1 were purchased from New England Biolabs (Hitchin, UK). Epithelial cells were treated as indicated in six-well plates and lysed in 10 mM Tris-HCl buffer (pH 7.5) containing 150 mM NaCl, 2 mM EDTA, 1 mM sodium orthovanadate, 1% (v/v) Triton X-100, 1 mM phenylmethylsulfonyl fluoride, 10 μg/ml leupeptin, and 10 μg/ml aprotinin) for 30 min on ice. The lysates were then centrifuged at 12,000g for 15 min and protein concentration determined using the BCA protein assay (BioRad, Hemel Hempstead, UK). The proteins within the lysates (20 μg) were resolved with 4–12% Bis-Tris gels and transferred onto nitrocellulose membranes. The membranes were then blocked with 5% (w/v) non-fat milk in TBS containing 0.1% (v/v) Tween 20 for 1 h at room temperature and then incubated with antibodies specific for pSTAT-1 overnight at 4°C. The primary antibody was detected with peroxidase-conjugated secondary antibodies and labelled proteins were detected by ECL.
Cells were harvested and western blots performed for phosphorylated STAT-1 and total STAT-1 and quantified by densitometry. […]

STAT-1 [5] = assay: STAT-1 phosphorylation in BEAS-2B cells (western blot); format: cell-based, human; details: for IC50: Homo sapiens, n = 4
Procedure: as §1
Having ascertained that JAK inhibitors could suppress the glucocorticosteroid-insensitive release of CXCL9, CXCL10 and CXCL11 from airway epithelial cells, it was important to confirm that this was via inhibition of the JAK-STAT pathway and not an off-target effect of these agents. […] BEAS-2B cells were stimulated with either IFNγ or IFNγ in combination with TNFα and the phosphorylation of STAT-1 was measured by western blotting as reported previously (Fig 4). […] There was no activation of STAT-5A or STAT-5B in this system (data not shown).
Cells were harvested and western blots performed for phosphorylated STAT-1 and total STAT-1 and quantified by densitometry. Data are representative of n = 4 independent experiments (panels a and c) and presented as mean±SEM, n = 4 (panels b and d).

[6] = system: human primary airway epithelial cells; assay: Release of CXCL9, CXCL10 and CXCL11 from human primary airway epithelial cells (ELISA); format: cell-based; details: for IC50 / EC50: Homo sapiens, Epithelial cell, pre-treated 1h; for IC50: pooled primary cells
Procedure: BEAS-2B cells (catalogue number CRL-9609) were purchased directly from American Type Culture Collection (Rockville, MD). Keratinocyte serum-free medium (K-SFM), bovine pituitary extract (BPE), and recombinant human epidermal growth factor (EGF) were purchased from Invitrogen (Paisley, UK). BEAS-2B cells were cultured in K-SFM containing 50 μg/ml BPE and 5 ng/ml EGF at 37°C in a humidified atmosphere comprising 5% (v/v) CO2 in air. Cells were cultured as monolayers in growth factor-free media for 24 h prior to stimulation. Human primary airway epithelial cells were cultured as monolayers from bronchial brushings from both male and female subjects (Table 1) and cultured in LHC-9 media (Invitrogen, Paisley, UK) in collagen (1% w/v) coated flasks. Samples were obtained from non-smokers, smokers and patients with COPD. […] The subjects were matched for age and smokers and COPD patients for smoking history (Table 1). All subjects gave informed written consent and the study was approved by the NRES London-Chelsea Research Ethics committee, study number 09/H0801/85.
Cell-free supernatants were removed 20h post-stimulation and assayed for CXCL9, CXCL10 and CXCL11 using Duoset ELISA kits (R & D Systems Europe, Abingdon, UK) according to the manufacturer’s instructions. The detection limits of these assays are 62pg/ml, 31pg/ml, and 7.8 pg/ml respectively.
Data are presented as mean ± SEM of ‘n’ independent determinations. Concentration-response curves were analysed by least-squares, non-linear iterative regression with the ‘Graphpad Prism’ curve fitting program (GraphPad software, San Diego, USA) and IC50 values were subsequently interpolated from curves of best-fit. Statistical differences were determined using the Kruskal–Wallis test followed by Dunn's multiple comparison test or a Wilcoxon signed rank test as appropriate. Values of P<0.05 were considered significant.
Media was harvested and the concentrations of CXCL9 (panels a and d), CXCL10 (panels b and e) and CXCL11 (panels c and f) were measured by ELISA. Data are presented as mean ± SEM, n = 10–13.

## CCc1cc(O)ccc1-c1ccc2c(-c3nc4ccccc4[nH]3)n[nH]c2c1 [PF1367550, 4-(3-(1H-benzo[d]imidazol-2-yl)-1H-indazol-6-yl)-3-ethylphenol]
[1]
  IC50: 14 nM
[2]
  IC50 for IL-6 release, fold greater than for inhibition of CXCR3 chemokine release: ~ 50 fold
[2]; Homo sapiens, Epithelial cell, IFNγ + TNFα, n = 7
  IC50: 800 ± 200 nM
[3]
  IC50: 45 nM
STAT-1 [4]
  effect on phosphorylation of STAT-1: suppressed
STAT-1 [5]
  fold more potent at suppressing STAT-1 phosphorylation compared with PF956980: ~ 40 fold
STAT-1 [5]; IFNγ + TNFα stimulation
  IC50: 32 ± 13 nM
STAT-1 [5]; IFNγ stimulation
  IC50: 24 ± 6 nM
[6]; IFNγ (10ng/ml) 20h, read-out: IC50, release of CXCL9
  IC50: 8.4 ± 1.3 nM
[6]; IFNγ (10ng/ml) 20h, read-out: IC50, release of CXCL10
  IC50: 10.4 ± 1.7 nM
[6]; IFNγ (10ng/ml) 20h, read-out: IC50, release of CXCL11
  IC50: 7 ± 0.9 nM
[6]; IFNγ+TNFα (10ng/ml) 20h, read-out: IC50, release of CXCL9
  IC50: 17.6 ± 3 nM
[6]; IFNγ+TNFα (10ng/ml) 20h, read-out: IC50, release of CXCL10
  IC50: 24.3 ± 2.4 nM
[6]; IFNγ+TNFα (10ng/ml) 20h, read-out: IC50, release of CXCL11
  IC50: 14.5 ± 2.4 nM
[6]; primary cells from COPD patients, IFNγ (10 ng/ml) 20h, read-out: EC50, release of CXCL9
  EC50: 7.4 ± 1.3 nM
[6]; primary cells from COPD patients, IFNγ (10 ng/ml) 20h, read-out: EC50, release of CXCL10
  EC50: 7.1 ± 1.3 nM
[6]; primary cells from COPD patients, IFNγ (10 ng/ml) 20h, read-out: EC50, release of CXCL11
  EC50: 6.3 ± 1.4 nM
[6]; primary cells from COPD patients, IFNγ +TNFα (10 ng/ml) 20h, read-out: EC50, release of CXCL9
  EC50: 20.8 ± 4.8 nM
[6]; primary cells from COPD patients, IFNγ +TNFα (10 ng/ml) 20h, read-out: EC50, release of CXCL10
  EC50: 29.1 ± 3.5 nM
[6]; primary cells from COPD patients, IFNγ +TNFα (10 ng/ml) 20h, read-out: EC50, release of CXCL11
  EC50: 16.7 ± 4.1 nM
[6]; primary cells from non-smokers, IFNγ (10 ng/ml) 20h, read-out: EC50, release of CXCL9
  EC50: 9.73 ± 3.5 nM
[6]; primary cells from non-smokers, IFNγ (10 ng/ml) 20h, read-out: EC50, release of CXCL10
  EC50: 12.8 ± 5.6 nM
[6]; primary cells from non-smokers, IFNγ (10 ng/ml) 20h, read-out: EC50, release of CXCL11
  EC50: 8.5 ± 0.7 nM
[6]; primary cells from non-smokers, IFNγ +TNFα (10 ng/ml) 20h, read-out: EC50, release of CXCL9
  EC50: 14.1 ± 7.1 nM
[6]; primary cells from non-smokers, IFNγ +TNFα (10 ng/ml) 20h, read-out: EC50, release of CXCL10
  EC50: 20.3 ± 5.1 nM
[6]; primary cells from non-smokers, IFNγ +TNFα (10 ng/ml) 20h, read-out: EC50, release of CXCL11
  EC50: 13.7 ± 6.7 nM
[6]; primary cells from smokers, IFNγ (10 ng/ml) 20h, read-out: EC50, release of CXCL9
  EC50: 9 ± 3 nM
[6]; primary cells from smokers, IFNγ (10 ng/ml) 20h, read-out: EC50, release of CXCL10
  EC50: 12.3 ± 0.36 nM
[6]; primary cells from smokers, IFNγ (10 ng/ml) 20h, read-out: EC50, release of CXCL11
  EC50: 6.8 ± 1.9 nM
[6]; primary cells from smokers, IFNγ +TNFα (10 ng/ml) 20h, read-out: EC50, release of CXCL9
  EC50: 15.3 ± 4.8 nM
[6]; primary cells from smokers, IFNγ +TNFα (10 ng/ml) 20h, read-out: EC50, release of CXCL10
  EC50: 20.2 ± 3.6 nM
[6]; primary cells from smokers, IFNγ +TNFα (10 ng/ml) 20h, read-out: EC50, release of CXCL11
  EC50: 11.8 ± 2.9 nM
[6]; pooled human primary airway epithelial cells
  fold more potent than PF956980, CXCR3 chemokine release: ~ 80 fold
